Reference: patent publication US9999622B2, “Pyrazolothiazole compound and medicine comprising same” (NIPPON SHINYAKU CO., LTD., priority 2014, dated 2018)
Structures can show the parent of a compound that is named as a salt.

Assays:
JAK1 = target: T1, JAK1 (Homo sapiens, UniProt P23458); test: JAK tyrosine kinase inhibitory activity in the presence of 1 mM ATP (ELISA), JAK1; format: biochemical
T1 construct: purchased Carna Biosciences, Inc
How it was run: (§1)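 Kinase reactions ran on streptavidin-coated plates in 15 mM Tris-HCl pH 7.5, 0.01% Tween-20, 1 mM DTT, 30 °C for 1 h. Enzyme was prediluted to 7.5 nM (JAK1) or 0.75 nM (JAK2, JAK3) before addition. Phosphotyrosine was detected with HRP anti-pTyr antibody and TMB at A450.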

JAK3 = target: T2, JAK3 (Homo sapiens, UniProt P52333); test: JAK tyrosine kinase inhibitory activity in the presence of 1 mM ATP (ELISA), JAK3; format: biochemical
T2 construct: purchased Carna Biosciences, Inc
T2 sequence (P52333 1-1124): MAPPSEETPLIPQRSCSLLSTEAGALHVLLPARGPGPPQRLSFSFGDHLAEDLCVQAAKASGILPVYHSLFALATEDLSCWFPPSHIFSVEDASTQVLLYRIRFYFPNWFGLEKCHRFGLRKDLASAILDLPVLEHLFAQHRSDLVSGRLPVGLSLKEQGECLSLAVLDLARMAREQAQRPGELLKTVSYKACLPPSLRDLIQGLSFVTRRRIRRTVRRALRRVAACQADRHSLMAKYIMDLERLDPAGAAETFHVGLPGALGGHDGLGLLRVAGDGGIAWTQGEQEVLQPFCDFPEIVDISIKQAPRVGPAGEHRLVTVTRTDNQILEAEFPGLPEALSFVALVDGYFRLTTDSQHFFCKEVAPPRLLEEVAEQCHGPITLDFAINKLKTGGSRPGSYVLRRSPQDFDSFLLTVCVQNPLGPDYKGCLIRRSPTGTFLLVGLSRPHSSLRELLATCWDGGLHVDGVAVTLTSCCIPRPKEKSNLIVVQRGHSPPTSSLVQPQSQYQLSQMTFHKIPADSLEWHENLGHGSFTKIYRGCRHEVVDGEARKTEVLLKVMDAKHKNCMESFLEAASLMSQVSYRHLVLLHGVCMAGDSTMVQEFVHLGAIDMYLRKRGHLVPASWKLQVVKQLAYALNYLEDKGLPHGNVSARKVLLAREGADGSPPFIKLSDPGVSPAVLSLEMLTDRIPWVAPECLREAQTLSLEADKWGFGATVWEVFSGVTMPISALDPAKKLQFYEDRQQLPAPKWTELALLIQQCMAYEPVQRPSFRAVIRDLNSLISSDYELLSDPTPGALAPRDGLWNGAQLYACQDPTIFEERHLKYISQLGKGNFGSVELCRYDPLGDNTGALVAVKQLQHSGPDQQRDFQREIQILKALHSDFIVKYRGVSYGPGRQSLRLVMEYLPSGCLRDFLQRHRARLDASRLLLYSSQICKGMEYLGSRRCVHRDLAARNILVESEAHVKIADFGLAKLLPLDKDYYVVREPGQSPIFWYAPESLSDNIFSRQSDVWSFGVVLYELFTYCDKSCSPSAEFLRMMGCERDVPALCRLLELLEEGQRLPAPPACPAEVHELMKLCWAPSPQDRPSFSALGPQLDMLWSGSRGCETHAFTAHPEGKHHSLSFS
How it was run: as §1

JAK2 = target: T3, JAK2 (Homo sapiens, UniProt O60674); test: JAK tyrosine kinase inhibitory activity in the presence of 1 mM ATP (ELISA), JAK2; format: biochemical
T3 construct: purchased Carna Biosciences, Inc
How it was run: as §1

[1] = test system: Aspergillus-induced airway inflammation model; test: Inhibitory effect on Aspergillus-induced airway inflammation model; format: in vivo; conditions: mice; for Inhibition rate on count of invasive eosinophil in BALF (%): oral, 10 mg/mL suspension at 10 mL/kg twice a day Day 0 to Day 9, BALF collected at Day 10; for inhibition in vivo at 10000 µg/mL, 100 mg/kg: Mus musculus, Eosinophil, po, 240 h, 10 mg/mL suspension at 10 mL/kg twice a day Day 0 to Day 9, BALF collected at Day 10, read-out: Inhibition rate on count of invasive eosinophil in BALF (%)
Procedure: Aspergillus fumigatus extracts (Greer laboratories, Inc.) were adjusted to 400 μg/mL with PBS. The Aspergillus fumigatus solutions thus prepared were administered to mice as nasal drops (50 μL) on Day 0, Day 1, Day 7 and Day 8. The nasal drop was administered one hour after the administration of test compounds in the morning. The test compound was administered twice a day in the morning and evening of Day 0 to Day 9. The test compound was suspended in 0.5% methylcellulose at 10 mg/mL, and orally administered at the dosage of 10 mL/kg. The bronchoalveolar lavage fluid (BALF) was collected at Day 10, and the total white blood cell count in BALF was measured using Celltac (NIHON KOHDEN). The ratio of eosinophil in total white blood cell was calculated using ADVIA 120 (Siemens Healthcare Diagnostics), and the ratio was multiplied by the total white blood cell count to determine the eosinophil count in BALF. The inhibition rate of the test compound was determined, assuming the inhibitory ratio in the treatment with Aspergillus fumigatus extract and 0.5% methylcellulose as 0% and the inhibitory ratio in the treatment without Aspergillus fumigatus extract but with 0.5% methylcellulose as 100%.

T1 sequence (P23458 whole entry): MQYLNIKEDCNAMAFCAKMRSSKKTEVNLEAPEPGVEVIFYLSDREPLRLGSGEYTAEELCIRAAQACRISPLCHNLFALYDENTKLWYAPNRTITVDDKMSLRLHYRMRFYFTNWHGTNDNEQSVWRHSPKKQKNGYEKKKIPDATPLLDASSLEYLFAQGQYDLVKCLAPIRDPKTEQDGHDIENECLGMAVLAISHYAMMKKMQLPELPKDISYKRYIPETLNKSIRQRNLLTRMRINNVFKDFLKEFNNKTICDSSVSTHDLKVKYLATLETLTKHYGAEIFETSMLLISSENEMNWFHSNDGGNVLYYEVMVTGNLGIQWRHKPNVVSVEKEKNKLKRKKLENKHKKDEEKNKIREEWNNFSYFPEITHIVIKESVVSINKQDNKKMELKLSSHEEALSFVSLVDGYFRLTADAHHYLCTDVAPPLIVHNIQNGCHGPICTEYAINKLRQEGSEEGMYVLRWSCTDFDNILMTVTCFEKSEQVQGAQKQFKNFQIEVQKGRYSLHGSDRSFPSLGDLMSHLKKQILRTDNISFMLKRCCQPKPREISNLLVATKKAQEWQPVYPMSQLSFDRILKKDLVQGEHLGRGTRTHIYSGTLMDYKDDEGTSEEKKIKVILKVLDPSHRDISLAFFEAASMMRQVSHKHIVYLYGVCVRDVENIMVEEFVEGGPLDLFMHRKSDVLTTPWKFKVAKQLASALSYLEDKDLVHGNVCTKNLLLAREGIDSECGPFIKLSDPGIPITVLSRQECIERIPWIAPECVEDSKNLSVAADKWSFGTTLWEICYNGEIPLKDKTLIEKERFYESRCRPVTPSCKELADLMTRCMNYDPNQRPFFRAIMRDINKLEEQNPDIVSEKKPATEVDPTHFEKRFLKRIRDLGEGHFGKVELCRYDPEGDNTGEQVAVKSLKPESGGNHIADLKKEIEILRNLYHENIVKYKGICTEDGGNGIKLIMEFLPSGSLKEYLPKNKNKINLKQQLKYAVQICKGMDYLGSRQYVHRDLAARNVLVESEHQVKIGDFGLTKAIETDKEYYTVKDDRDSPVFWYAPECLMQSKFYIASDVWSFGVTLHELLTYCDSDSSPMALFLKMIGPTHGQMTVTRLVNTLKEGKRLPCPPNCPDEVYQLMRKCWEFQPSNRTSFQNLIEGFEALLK
T3 sequence (O60674 whole entry): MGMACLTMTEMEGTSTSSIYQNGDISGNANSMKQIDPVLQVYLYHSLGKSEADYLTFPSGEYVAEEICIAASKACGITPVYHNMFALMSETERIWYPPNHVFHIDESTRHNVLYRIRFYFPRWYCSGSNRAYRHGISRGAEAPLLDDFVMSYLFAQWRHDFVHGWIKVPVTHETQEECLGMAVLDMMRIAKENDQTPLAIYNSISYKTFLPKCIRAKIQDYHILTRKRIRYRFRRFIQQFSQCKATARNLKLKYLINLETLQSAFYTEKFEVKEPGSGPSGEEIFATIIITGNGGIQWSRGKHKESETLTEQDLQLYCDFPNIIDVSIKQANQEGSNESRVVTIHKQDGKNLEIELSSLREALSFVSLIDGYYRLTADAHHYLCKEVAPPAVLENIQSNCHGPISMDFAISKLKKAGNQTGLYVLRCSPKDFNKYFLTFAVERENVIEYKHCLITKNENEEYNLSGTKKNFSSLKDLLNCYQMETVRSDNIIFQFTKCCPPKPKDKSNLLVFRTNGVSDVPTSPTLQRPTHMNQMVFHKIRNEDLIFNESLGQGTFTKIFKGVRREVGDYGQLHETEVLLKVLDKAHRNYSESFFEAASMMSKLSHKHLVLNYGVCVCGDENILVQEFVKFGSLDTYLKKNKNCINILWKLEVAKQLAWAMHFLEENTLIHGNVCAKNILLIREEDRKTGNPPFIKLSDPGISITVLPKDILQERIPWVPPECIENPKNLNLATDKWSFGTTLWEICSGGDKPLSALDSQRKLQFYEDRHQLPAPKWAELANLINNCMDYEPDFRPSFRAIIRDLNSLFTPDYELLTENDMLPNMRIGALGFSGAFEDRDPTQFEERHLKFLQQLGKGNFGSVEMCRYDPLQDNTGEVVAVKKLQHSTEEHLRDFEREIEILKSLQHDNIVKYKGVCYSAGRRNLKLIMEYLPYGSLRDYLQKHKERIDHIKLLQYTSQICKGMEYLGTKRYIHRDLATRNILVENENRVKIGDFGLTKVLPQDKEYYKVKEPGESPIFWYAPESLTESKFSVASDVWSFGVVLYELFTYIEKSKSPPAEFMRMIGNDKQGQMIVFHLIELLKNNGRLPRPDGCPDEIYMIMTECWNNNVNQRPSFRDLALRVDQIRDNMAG

`CCOC(=O)NC1CCN(C(=O)c2cc(N[C@H](C)C3CC3)nc(-c3cnn4ccsc34)n2)CC1` [Example 73, Ethyl (1-{[6-{[(1R)-1-cyclopropylethyl]amino}-2-(pyrazolo[5,1-b][1,3]thiazol-7-yl)pyrimidin-4-yl]carbonyl}piperidin-4-yl)carbamate] was tested, and the IC50 (JAK1) was 73 nM, the IC50 (JAK3) was 2200 nM and the IC50 (JAK2) was 3200 nM. The “Inhibition rate on count of invasive eosinophil in BALF (%)” value [1] was 64%.
`CCOC(=O)NC1CCN(C(=O)c2cc(N[C@H](C)C3CC3)nc(-c3cnn4ccsc34)n2)CC1` [Example 74, Ethyl (1-{[6-{[(1R)-1-cycloproropylethyl]amino}-2-(pyrazolo[5,1-b][1,3]thiazol-7-yl)pyrimidin-4-yl]carbonyl}piperidin-4-yl)carbamate hydrochloride] gave an IC50 (JAK1) of 95 nM, an IC50 (JAK3) of 2600 nM and an IC50 (JAK2) of 3100 nM. The “Inhibition rate on count of invasive eosinophil in BALF (%)” value ([1]; hydrochloride) was 34%.
With `CCC(CC)Nc1cc(C(=O)N2CCC(O)CC2)nc(-c2cnn3ccsc23)n1` [Example 81, (4-Hydroxypiperidin-1-yl) [6-(pentan-3-ylamino)-2-(pyrazolo[5,1-b][1,3]thiazol-7-yl)pyrimidin-4-yl]methanone hydrochloride] the IC50 (JAK1) was 1600 nM, the IC50 (JAK3) was 3300 nM and the IC50 (JAK2) was 2200 nM. It also gave an inhibition in vivo at 10000 µg/mL, 100 mg/kg [1] of 43%.
In the case of `COC(=O)NC1CCN(C(=O)c2cc(NCC(C)(C)C)nc(-c3cnn4ccsc34)n2)CC1` [Example 87, Methyl [1-({6-[(2,2-dimethylpropyl)amino]-2-(pyrazolo[5,1-b][1,3]thiazol-7-yl)pyrimidin-4-yl}carbonyl)piperidin-4-yl]carbamate hydrochloride], the IC50 (JAK1) is reported as 250 nM, the IC50 (JAK3) is reported as 9500 nM and the IC50 (JAK2) is reported as 1600 nM. It also gave an inhibition in vivo at 10000 µg/mL, 100 mg/kg [1] of 24%.
Compound `C[C@@H](Nc1cc(C(=O)N2CCC(NC(=O)OCC(F)F)CC2)nc(-c2cnn3ccsc23)n1)C1CC1` [Example 96, 2,2-Difluoroethyl (1-{[6-{[(1R)-1-cyclopropylethyl]amino}-2-(pyrazolo[5,1-b][1,3]thiazol-7-yl)pyrimidin-4-yl]carbonyl}piperidin-4-yl)carbamate hydrochloride] has an IC50 (JAK1) of 250 nM, an IC50 (JAK3) of 2200 nM and an IC50 (JAK2) of 1000 nM. The inhibition in vivo at 10000 µg/mL, 100 mg/kg [1] was 51%.
`C[C@@H](Nc1cc(C(=O)N2CCC(NC(=O)OCC(F)F)CC2)nc(-c2cnn3ccsc23)n1)C(C)(C)C` [Example 97, 2,2-Difluoroethyl (1-{[6-{[(2R)-3,3-dimethylbutan-2-yl]amino}-2-(pyrazolo[5,1-b][1,3]thiazol-7-yl)pyrimidin-4-yl]carbonyl}piperidin-4-yl)carbamate hydrochloride] was tested, and the IC50 (JAK1) was 210 nM, the IC50 (JAK3) was 2700 nM and the IC50 (JAK2) was 1300 nM. The inhibition in vivo at 10000 µg/mL, 100 mg/kg [1] was 43%.
With `CC[C@H](C)Nc1cc(C(=O)N2CCC(NC(=O)OC)CC2)nc(-c2cnn3ccsc23)n1` [Example 125, Methyl [1-({6-[(2S)-butan-2-ylamino]-2-(pyrazolo[5,1-b][1,3]thiazol-7-yl)pyrimidin-4-yl}carbonyl)piperidin-4-yl]carbamate hydrochloride] the IC50 (JAK1) was 210 nM, the IC50 (JAK3) was over 10000 nM and the IC50 (JAK2) was 4700 nM. The inhibition in vivo at 10000 µg/mL, 100 mg/kg [1] was 35%.
`CC[C@@H](C)Nc1cc(C(=O)N2CCC(NC(=O)OC)CC2)nc(-c2cnn3ccsc23)n1` [Example 126, Methyl [1-({6-[(2R)-butan-2-ylamino]-2-(pyrazolo[5,1-b][1,3]thiazol-7-yl)pyrimidin-4-yl}carbonyl)piperidin-4-yl]carbamate] was tested, and the IC50 (JAK1) was 820 nM, the IC50 (JAK3) was over 10000 nM and the IC50 (JAK2) was over 10000 nM. It also gave an inhibition in vivo at 10000 µg/mL, 100 mg/kg [1] of 57%.
